Test results published in ChEMBL document CHEMBL5696441 (Nat Chem Biol, 2011).

Legend:
[1] = biological target: Citron Rho-interacting kinase (Homo sapiens) (UniProt O14578); assay: Inhibition of CIT (unknown origin) assessed as remaining activity at 1 uM by Kinome scan method relative to control
[2] = system: RAF proto-oncogene serine/threonine-protein kinase (Homo sapiens), P04049 [Y340D,Y341D]; assay: Inhibition of human RAF1 Y340D/Y341D double mutant assessed as residual activity at 1 uM using MEK1-K97M as substrate in presence of 33P-ATP by ProQinase assay relative to control
[3] = biological target: T1, Muscle, skeletal receptor tyrosine-protein kinase (Homo sapiens) (UniProt O15146); assay: Inhibition of human MUSK assessed as residual activity at 1 uM using Poly(Ala,Glu,Lys,Tyr)6:2:5:1 as substrate in presence of 33P-ATP by ProQinase assay relative to control
T1 sequence (whole entry): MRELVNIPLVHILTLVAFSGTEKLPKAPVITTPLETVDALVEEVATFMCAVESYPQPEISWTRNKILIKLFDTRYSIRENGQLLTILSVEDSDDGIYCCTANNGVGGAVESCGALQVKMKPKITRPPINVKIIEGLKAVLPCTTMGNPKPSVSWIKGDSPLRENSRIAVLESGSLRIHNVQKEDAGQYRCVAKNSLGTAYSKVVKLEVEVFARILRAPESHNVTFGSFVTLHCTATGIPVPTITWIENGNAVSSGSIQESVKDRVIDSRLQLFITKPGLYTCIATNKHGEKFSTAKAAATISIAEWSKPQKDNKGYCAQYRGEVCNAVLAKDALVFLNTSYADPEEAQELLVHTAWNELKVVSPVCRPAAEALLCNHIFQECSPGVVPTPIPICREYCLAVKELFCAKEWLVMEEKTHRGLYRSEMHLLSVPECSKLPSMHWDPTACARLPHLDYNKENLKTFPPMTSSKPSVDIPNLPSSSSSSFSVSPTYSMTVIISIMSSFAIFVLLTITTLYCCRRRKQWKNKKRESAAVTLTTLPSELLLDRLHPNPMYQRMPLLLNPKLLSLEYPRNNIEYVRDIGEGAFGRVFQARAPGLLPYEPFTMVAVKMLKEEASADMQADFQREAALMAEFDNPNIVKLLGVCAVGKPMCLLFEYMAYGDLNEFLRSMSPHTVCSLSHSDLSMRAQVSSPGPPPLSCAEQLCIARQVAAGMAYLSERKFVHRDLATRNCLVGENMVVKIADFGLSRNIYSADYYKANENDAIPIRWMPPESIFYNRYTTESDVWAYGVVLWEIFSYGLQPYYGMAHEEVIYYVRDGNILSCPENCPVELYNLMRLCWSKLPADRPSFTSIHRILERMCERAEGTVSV

[4] = biological target: Serine/threonine-protein kinase PAK 2 (Homo sapiens) (UniProt Q13177); assay: Inhibition of PAK2 (unknown origin) assessed as remaining activity at 1 uM by Kinome scan method relative to control
[5] = biological target: T2, Serine/threonine-protein kinase D3 (Homo sapiens) (UniProt O94806); assay: Inhibition of human PKCnu assessed as residual activity at 1 uM using bio-4xCHKT as substrate in presence of 33P-ATP by ProQinase assay relative to control
T2 sequence (whole entry): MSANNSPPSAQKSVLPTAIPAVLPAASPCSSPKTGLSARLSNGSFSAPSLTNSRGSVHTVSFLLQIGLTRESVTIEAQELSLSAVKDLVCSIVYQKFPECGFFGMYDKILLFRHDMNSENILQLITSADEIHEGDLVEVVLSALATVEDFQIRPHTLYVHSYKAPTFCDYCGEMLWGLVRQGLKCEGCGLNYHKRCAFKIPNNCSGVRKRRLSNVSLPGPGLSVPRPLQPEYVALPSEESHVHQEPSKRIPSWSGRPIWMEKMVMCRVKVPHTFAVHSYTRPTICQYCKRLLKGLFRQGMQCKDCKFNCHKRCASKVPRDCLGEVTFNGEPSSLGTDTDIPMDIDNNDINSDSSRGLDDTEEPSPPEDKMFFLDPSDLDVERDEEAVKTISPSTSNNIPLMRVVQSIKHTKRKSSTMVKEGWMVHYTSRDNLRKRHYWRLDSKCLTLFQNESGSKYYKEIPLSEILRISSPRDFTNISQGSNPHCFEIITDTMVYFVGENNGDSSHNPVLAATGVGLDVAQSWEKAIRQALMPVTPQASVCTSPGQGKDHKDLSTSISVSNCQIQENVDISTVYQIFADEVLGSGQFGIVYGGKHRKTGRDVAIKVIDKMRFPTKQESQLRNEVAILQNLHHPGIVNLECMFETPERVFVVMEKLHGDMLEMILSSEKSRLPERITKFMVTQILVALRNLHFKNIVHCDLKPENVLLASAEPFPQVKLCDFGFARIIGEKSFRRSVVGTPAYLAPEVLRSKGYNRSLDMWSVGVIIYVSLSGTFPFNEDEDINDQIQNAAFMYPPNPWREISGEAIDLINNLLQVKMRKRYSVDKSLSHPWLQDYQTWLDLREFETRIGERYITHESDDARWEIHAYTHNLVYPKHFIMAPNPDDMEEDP

Chain of Citron Rho-interacting kinase (Homo sapiens) (O14578 whole entry): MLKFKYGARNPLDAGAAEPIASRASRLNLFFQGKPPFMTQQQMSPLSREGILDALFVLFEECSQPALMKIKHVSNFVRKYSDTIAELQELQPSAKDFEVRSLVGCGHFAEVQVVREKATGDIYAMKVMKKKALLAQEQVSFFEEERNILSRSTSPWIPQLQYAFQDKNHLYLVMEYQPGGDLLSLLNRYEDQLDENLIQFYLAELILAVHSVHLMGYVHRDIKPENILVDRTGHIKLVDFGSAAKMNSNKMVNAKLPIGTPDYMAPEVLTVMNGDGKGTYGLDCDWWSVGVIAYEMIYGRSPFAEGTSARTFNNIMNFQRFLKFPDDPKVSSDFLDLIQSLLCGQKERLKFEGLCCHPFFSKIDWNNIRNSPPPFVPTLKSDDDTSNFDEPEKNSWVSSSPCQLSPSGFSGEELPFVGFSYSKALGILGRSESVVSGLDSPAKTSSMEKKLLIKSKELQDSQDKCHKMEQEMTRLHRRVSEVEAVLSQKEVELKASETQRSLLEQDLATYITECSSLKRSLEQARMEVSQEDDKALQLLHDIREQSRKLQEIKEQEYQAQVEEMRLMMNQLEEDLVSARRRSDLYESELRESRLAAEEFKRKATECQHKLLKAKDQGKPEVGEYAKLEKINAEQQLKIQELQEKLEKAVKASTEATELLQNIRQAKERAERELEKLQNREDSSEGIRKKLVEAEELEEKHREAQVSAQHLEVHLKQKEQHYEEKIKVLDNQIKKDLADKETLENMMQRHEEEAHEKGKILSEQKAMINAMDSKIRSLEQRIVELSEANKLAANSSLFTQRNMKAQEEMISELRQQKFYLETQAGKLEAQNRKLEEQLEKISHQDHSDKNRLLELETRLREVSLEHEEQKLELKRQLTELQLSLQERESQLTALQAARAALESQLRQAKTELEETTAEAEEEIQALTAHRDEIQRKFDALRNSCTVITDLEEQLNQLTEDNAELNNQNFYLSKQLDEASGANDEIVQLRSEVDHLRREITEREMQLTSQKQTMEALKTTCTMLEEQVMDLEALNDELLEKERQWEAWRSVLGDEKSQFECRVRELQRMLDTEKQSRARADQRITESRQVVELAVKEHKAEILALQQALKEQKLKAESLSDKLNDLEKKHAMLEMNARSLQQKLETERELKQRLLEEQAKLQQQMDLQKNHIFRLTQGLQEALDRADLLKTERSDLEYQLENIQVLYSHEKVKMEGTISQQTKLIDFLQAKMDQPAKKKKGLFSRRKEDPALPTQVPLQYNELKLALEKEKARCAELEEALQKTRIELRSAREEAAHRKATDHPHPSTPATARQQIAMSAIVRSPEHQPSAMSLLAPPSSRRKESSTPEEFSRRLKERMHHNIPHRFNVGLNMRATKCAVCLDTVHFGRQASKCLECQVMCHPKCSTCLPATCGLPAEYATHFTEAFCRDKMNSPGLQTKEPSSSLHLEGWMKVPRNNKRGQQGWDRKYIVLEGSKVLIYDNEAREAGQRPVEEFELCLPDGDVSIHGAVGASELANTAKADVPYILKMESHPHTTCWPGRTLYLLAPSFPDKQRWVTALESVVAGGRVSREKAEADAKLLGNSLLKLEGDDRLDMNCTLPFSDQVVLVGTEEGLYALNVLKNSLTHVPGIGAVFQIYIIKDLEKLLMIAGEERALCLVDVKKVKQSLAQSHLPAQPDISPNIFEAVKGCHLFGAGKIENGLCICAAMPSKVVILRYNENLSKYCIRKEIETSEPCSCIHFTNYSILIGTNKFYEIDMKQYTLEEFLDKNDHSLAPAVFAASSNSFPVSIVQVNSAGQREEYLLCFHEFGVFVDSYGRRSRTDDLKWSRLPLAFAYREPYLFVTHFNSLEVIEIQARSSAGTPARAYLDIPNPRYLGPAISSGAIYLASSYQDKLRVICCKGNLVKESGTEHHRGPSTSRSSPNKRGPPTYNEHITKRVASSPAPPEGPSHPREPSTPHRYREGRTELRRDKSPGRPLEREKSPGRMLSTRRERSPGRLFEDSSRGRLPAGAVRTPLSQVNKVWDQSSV
Chain of Serine/threonine-protein kinase PAK 2 (Homo sapiens) (Q13177 whole entry): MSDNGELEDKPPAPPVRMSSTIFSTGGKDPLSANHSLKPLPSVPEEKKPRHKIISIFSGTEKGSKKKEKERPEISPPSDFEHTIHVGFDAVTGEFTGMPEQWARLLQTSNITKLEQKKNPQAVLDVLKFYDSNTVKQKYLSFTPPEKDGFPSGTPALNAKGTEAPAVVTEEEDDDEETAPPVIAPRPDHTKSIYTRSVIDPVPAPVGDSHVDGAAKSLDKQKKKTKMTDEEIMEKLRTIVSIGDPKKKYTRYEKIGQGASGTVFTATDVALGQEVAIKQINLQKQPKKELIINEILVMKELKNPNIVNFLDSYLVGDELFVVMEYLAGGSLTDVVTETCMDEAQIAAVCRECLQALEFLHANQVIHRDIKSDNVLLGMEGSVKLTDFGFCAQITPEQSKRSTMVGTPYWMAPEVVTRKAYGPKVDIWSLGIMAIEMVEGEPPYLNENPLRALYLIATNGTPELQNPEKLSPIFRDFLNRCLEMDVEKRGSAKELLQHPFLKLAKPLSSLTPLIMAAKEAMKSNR

Structure (SMILES): O=C1c2ccc(Nc3ccc(F)cc3F)cc2CCc2ccc(OC[C@H](O)CO)cc21 [Skepinone-L]
- Activity [1]: 92%
- Activity [2]: 91%
- Activity [3]: 106%
- Activity [4]: 100%
- Activity [5]: 92%
